Test results: patent US12577190B2, “Method for producing polyol-based esters of ketocarboxylic acids” (KetoLipix Therapeutics GmbH, priority 2019, dated 2026)

Legend:
[1] = test system: pancreatin (Panzytrat 40,000)
Method: Both media are from the company Biorelevant®, Ltd. in Great Britain. In addition, in some experiments porcine pancreas is added (Panzytrat® 40,000, Fa. Allergan).
The pancreatin is used in the form of the commercially available product Panzytrat® 40,000 from the Allergan company. The whole mixture is stirred on a hot plate at 50° C.; the course of the reaction is determined and monitored by continuously recording the acid number over time.

[2] = even if several grams are taken; cited from earlier work

| cleavage by pancreatin [1] | Compound | duration of ketosis [2] |
| --- | --- | --- |
| cleaved | 3-oxobutyric acid di-diglycerol ester | – |
| cleaved | 3-oxobutyric acid mono-diglycerol ester | – |
| cleaved | 3-oxobutyric acid tri-diglycerol ester | – |
| – | CC(O)CC(=O)O (stereo not shown) [3-hydroxybutyric acid] | three to four |
